# Test results as given in patent US6610653B1, “Therapeutic preparation for inhalation” (priority 1994, dated 2003).
# Assays:
# [1] = Selection of enhancers: inhaled insulin/enhancer powder in rat model, blood glucose levels; assay type: in vivo; conditions: for Effect (decrease in blood glucose level): rat, inhalation; for usefulness as enhancer of insulin absorption in the lung: tested as enhancer in the method of the invention, rat model; for Effect (decrease in blood glucose level): key: +: significant decrease in blood glucose level; (+): moderate decrease in blood glucose level; −: no or very small decrease in blood glucose level
# Description: Each of the compounds listed in Table III was tested for its ability to enhance uptake of insulin, and thus affect blood glucose levels, in a rat model. Various forms of insulin were employed: recombinant or semisynthetic human or bovine. […] The powder was administered to rats by inhalation, and the blood glucose levels of the rats were subsequently monitored. These levels were compared to the corresponding values obtained from rats which had inhaled insulin formulations without enhancer.
# [2] = test system: CaCo-2 cell monolayer; test: In vitro CaCo-2 epithelial cell monolayer transport assay; assay type: in vitro ADME
# Description: A standard in vitro assay utilizing an epithelial cell line, CaCo-2 (available through the American Type Culture Collection (ATCC), Rockville, Md., USA), has been developed to assess the ability of various enhancer compounds to promote transport of insulin and other markers across an epithelial cell monolayer, as a model for the epithelial cell layer which functions in the lung to separate the alveolus from the pulmonary blood supply. In this assay, the enhancer and insulin or other marker are dissolved in aqueous solution at various proportions and/or concentrations, and applied to the apical side of the cell monolayer. After 60 min incubation at 37° C. and 95% RH (relative humidity), the amount of the marker on the basolateral side of the cells is determined: for example, by use of a radioactively labelled marker. […] This concentration of sodium caprate (16 mM) was also found to promote absorption of insulin across the cell monolayer. The amount of insulin which passed across the monolayer doubled in the presence of 16 mM sodium caprate, compared to the amount in the absence of any enhancer. It is expected that at higher concentrations of sodium caprate, the permeability of the cells will be further increased; however, the potential cytotoxicity of sodium caprate may prevent the use of substantially higher concentrations of this particular enhancer.
# [3] = Insulin combined with sodium caprate in various w/w proportions, in vivo models
# Description: In general, it is desirable to keep the ratio of insulin to enhancer as high as possible, within the range that permits fast and efficient enhancement of insulin absorption. This is important in order to minimize the risk of adverse effects, both local and systemic, attributable to the enhancer. The optimal ratio of insulin to enhancer can be ascertained for any given enhancer by testing various proportions in in vivo models such as described herein. For example, insulin was combined with sodium caprate in the following w/w proportions: 50/50, 75/25, 82.5/17.5, and 90/10. […] Other enhancers may have higher or lower optimal concentrations relative to insulin, and each individual enhancer must therefore be separately tested.
# [4] = Enhancer:Insulin:lactose 4:4:92
# [5] = Enhancer:Insulin:lactose 2:4:94
# [6] = Enhancer:Insulin:lactose 25:75:0
Compound,"Effect (decrease in blood glucose level) [1, 4]",usefulness as enhancer of insulin absorption in the lung [1],further results
C[C@H](CCC(=O)NCCS(=O)(=O)O)[C@H]1CC[C@H]2[C@@H]3[C@H](O)C[C@@H]4C[C@H](O)CC[C@]4(C)[C@H]3C[C@H](O)[C@]12C [Sodium taurocholate],+,effectively enhance insulin absorption in the lung,
CCCCCCCC(=O)OCC(COP(=O)([O-])OCC[N+](C)(C)C)OC(=O)CCCCCCC (stereo not shown) [Dioctanoylphosphatidylcholine],,,"Effect (decrease in blood glucose level) [1, 5]: (+)"
Lysophosphatidylcholine,+,effective enhancer,
CCCCCCCCCC(=O)[O-].[Na+] [Sodium caprate],+,perform well,"Effect (decrease in blood glucose level) ([1]; Enhancer:Insulin:lactose 10:90:0): (+); Effect (decrease in blood glucose level) ([1]; Enhancer:Insulin:lactose 17.5:82.5:0): (+); Effect (decrease in blood glucose level) [1, 6]: +; amount of insulin which passed across the monolayer, compared to absence of any enhancer ([2]; 16 mM sodium caprate): doubled; amount of marker (mannitol) which appears on the basolateral side, insulin added ([2]; 60 min at 37° C., 1:3 sodium caprate:insulin by weight, FIG. 8): true even when insulin is added; amount of marker (mannitol) which appears on the basolateral side ([2]; 60 min at 37° C., up to 16 mM sodium caprate, FIG. 7): dependent upon the concentration of enhancer used; improvement in absorption of insulin ([3]; insulin/sodium caprate w/w 50/50 (50% sodium caprate)): Significant improvement; improvement in absorption of insulin ([3]; insulin/sodium caprate w/w 75/25 (25% sodium caprate)): Significant improvement; improvement in absorption of insulin ([3]; insulin/sodium caprate w/w 82.5/17.5 (17.5% sodium caprate)): intermediate; improvement in absorption of insulin ([3]; insulin/sodium caprate w/w 90/10 (10% sodium caprate)): poor improvement; lowest effective concentration of sodium caprate ([3]; proportion of enhancer relative solely to insulin, 'probably 20-25%'): 15-25%"
CC(=O)OC1CC2(C)C(CC(O)C3C4(C)CCC(O)C(C)C4CCC32C)C1=C(CCCC(C)C)C(=O)NCCS(=O)(=O)O (stereo not shown) [Sodium taurodihydrofusidate],,effectively enhance insulin absorption in the lung,"Effect (decrease in blood glucose level) [1, 5]: +"
C[C@H](CCC(=O)[O-])[C@H]1CC[C@H]2[C@@H]3[C@@H](O)C[C@@H]4C[C@H](O)CC[C@]4(C)[C@H]3CC[C@]12C.[Na+] [Sodium ursodeoxycholate],+,effectively enhance insulin absorption in the lung,
CCCCCCCCOC1O[C@H](CO)[C@@H](O)[C@H](O)[C@H]1O (stereo partly shown) [Octylglucopyranoside],(+),some absorption enhancing properties,
sodium salt of ethylenediaminetetraacetic acid,,ineffective,
C[C@H](CCC(=O)NCC(=O)[O-])[C@H]1CC[C@H]2[C@@H]3[C@H](O)C[C@@H]4C[C@H](O)CC[C@]4(C)[C@H]3C[C@H](O)[C@]12C.[Na+] [Sodium glycocholate],+,effectively enhance insulin absorption in the lung,
CCCCCCCCCC(=O)OC[C@H](COP(=O)([O-])OCC[N+](C)(C)C)OC(=O)CCCCCCCCC [Didecanoylphospatidylcholine],,,Effect (decrease in blood glucose level) ([1]; Enhancer:Insulin:lactose 4:4:94): −
CCCCCCCC(=O)[O-].[Na+] [Sodium caprylate],,,"Effect (decrease in blood glucose level) [1, 6]: +"
CCCCCCCCCCCC(=O)[O-].[Na+] [Sodium laurate],,perform well,"Effect (decrease in blood glucose level) [1, 6]: (+)"
CCCCCCCCCCCCCC(=O)[O-].[Na+] [Sodium myristate],,perform well,Effect (decrease in blood glucose level) ([1]; Enhancer:Insulin:lactose 30:70:0): +
Lysine caprate,,effective,Effect (decrease in blood glucose level) ([1]; Enhancer:Insulin:lactose 35:65:0): +
CCCCCCCC/C=C\CCCCCCCC(=O)[O-].[K+] [Potassium oleate],+,,
Dimethyl-β-cyclodextrin,,absorption enhancing effect,Effect (decrease in blood glucose level) ([1]; Enhancer:Insulin:lactose 75:25:0): +
CCCCCCCCCC(=O)[O-].[K+] [Potassium caprate],,effective,Effect (decrease in blood glucose level) ([1]; Enhancer:Insulin:lactose 27:73:0): +
